According to patent US6780855B2, “11β-HALOGEN-7α-SUBSTITUTED ESTRATRIENES, PROCESS FOR THE PRODUCTION OF PHARMACEUTICAL PREPARATIONS THAT CONTAIN THESE 11β-HALOGEN-7α-SUBSTITUTED ESTRATRIENES AS WELL AS THEIR USE FOR THE PRODUCTION OF PHARMACEUTICAL AGENTS” (Schering Aktiengesellschaft, priority 1997, dated 2004):

What was measured:
[1] = test system: human estrogen receptor; experiment: Partial estrogenic action: transactivation assay, HeLa cells with HEGO and reporter gene rPR-TK-CAT; format: cell-based; settings: concentration of 1 μm, negative value means suppression of reporter gene activity below controls
Protocol: The partial estrogenic action of compounds according to the invention was determined by transactivation assays. HeLa cells were transfixed with human estrogen receptor expression vector (HEGO) and a reporter gene rPR-TK-CAT. This reporter gene contains the “Estrogen Responsive Element” of the rabbit progesterone receptor gene (+698/+729 region) before a TK-CAT gene (Savouret, J. F.; Bailly, A.; Misrahi, M.; Rauch, C.; Redeuilh, G.; Chauchereau, A.; Milgrom, E., Characterization of the Hormone Responsive Element Involved in the Regulation of the Progesterone Receptor Gene. EMBO J. 10, 1875-1883 (1991).
The estrogenic action was determined at a concentration of 1 μm.

[2] = test system: MVLN cells; experiment: Transactivation assay for antiestrogenic action in MVLN cells (reporter gene Vit-TK-LUC); format: cell-based; settings: Homo sapiens; MVLN cell line, in the presence of 0.1 nM of estradiol
Protocol: (§1) The antiestrogenic action of the compounds according to the invention was determined in transactivation assays [Demirpence, E.; Duchesne, M.-J.; Badia, E.; Gagne, D. and Pons, M.: MVLN Cells: a Bioluminescent MCF-7-Derived cell Line to Study the Modulation of Estrogenic Activity; J. Steroid. Molec. Biol. Vol. 46, No. 3, 355-364 (1993) and Berry, M.; Metzger, D.; Chambon, P.: Role of the Two Activating Domains of the Estrogen Receptor in the Cell-type and Promoter-context Dependent Agonistic Activity of the Anti-estrogen 4-Hydroxytamoxifen; The EMBO Journal Vol. 9, 2811-2818 (1990)].
The MVLN cells are transfixed in a stable manner with reporter gene Vit-TK-LUC. The antiestrogenic active strength was determined in the presence of 0.1 nM of estradiol.
(§2) The IC50 values for the new compounds are in the nanomolar range. In the MVLN cell line, the following IC50 values are produced for the compound of Examples 3 and 8 (execution of test according to the above-indicated bibliographic references): […]

[3] = test system: HeLa; experiment: Transactivation assay for antiestrogenic action in HeLa cells; format: cell-based; settings: Homo sapiens
Protocol: as §1, §2

[4] = test system: uterus; experiment: Uterus growth test in infantile rats (antiestrogenic action), p.o.; format: in vivo; settings: 0.3 mg p.o. once daily over 3 days with 0.5 μg estradiol benzoate s.c., inhibition compared to EB-control
Protocol: The uterus growth test in infantile rats, p.o. (test on antiestrogenic action in vivo) also confirms the antiestrogenic action of the compounds according to the invention. The test was performed as described below:
Uterus Growth Test in Infantile Rats (Antiestrogenic Action)
In rodents, the uterus reacts to the application of estrogens with an increase in weight (both proliferation and water retention). This growth can be inhibited in a dose-dependent manner by simultaneous administration of compounds that have an antiestrogenic action.
Infantile female rats weighing 35-45 g at the beginning of the test, 5-6 animals per dose.
Formulation and Administration of the Substances: […]
For the p.o. administration, the substances are dissolved in 1 part ethanol (E) and made up with 9 parts peanut oil (EÖ).
The young rats just dropped by the mothers are delivered for acclimation one day before the beginning of treatment and immediately supplied with food—right in the cage. […] The moist weight (less contents) is determined from the prepared uteri. […]
The average values are determined with standard deviation (X+SD) and the significance of the differences in the control group (EB) in the Dunnett Test (p<0.05) for each group from the relative organ weights (mg/100 g of body weight). […] The relative actions of the test substances are determined by co-variance analysis and regression analysis.

| Structure (SMILES) | Activation of the rPR-TK Promoter [% estradiol] [1] [% estradiol] | IC50 [2] [nM] | IC50 [3] [nM] | Antiuterotrophic action at 0.3 mg [% inhibition] [4] [% inhibition] | melting point [°C] |
| --- | --- | --- | --- | --- | --- |
| CN(CCCCCCC(F)(F)C(F)(F)F)CCCCC[C@@H]1Cc2cc(O)ccc2[C@@H]2[C@@H]1[C@@H]1CC[C@H](O)[C@@]1(C)C[C@@H]2F [Example 12, 11β-Fluoro-7α-{5-[methyl-(7,7,8,8,8-pentafluor-octyl)-amino]-pentyl}-estra-1,3,5(10)-triene-3,17β-diol] | 34 |  |  |  |  |
| CN(CCCCC[C@@H]1Cc2cc(O)ccc2[C@@H]2[C@@H]1[C@@H]1CC[C@H](O)[C@@]1(C)C[C@@H]2F)CCCC(F)(F)C(F)(F)F [Example 8, 11β-Fluoro-7α-{5-[methyl-(4,4,5,5,5-pentafluoro-pentyl)-amino]-pentyl}-estra-1,3,5(10)-triene-3,17β-diol] | 48 | 37 | 8 | 0 |  |
| CN(CCCCCCCCC(F)(F)C(F)(F)F)CCCCC[C@@H]1Cc2cc(O)ccc2[C@@H]2[C@@H]1[C@@H]1CC[C@H](O)[C@@]1(C)C[C@@H]2F [Example 3, 11β-Fluoro-7α-{5-[methyl-(9,9,10,10,10-pentafluoro-decyl)-amino]-pentyl}-estra-1,3,5(10)-triene-3,17β-diol] | −25 | 6.3 | 0.2 | 68 |  |
| CN(CC=C(F)C(F)(F)C(F)(F)C(F)(F)F)CCCCC[C@@H]1Cc2cc(O)ccc2[C@@H]2[C@@H]1[C@@H]1CC[C@H](O)[C@@]1(C)C[C@@H]2F [Example 18, 11β-Fluoro-7α-{5-[methyl-(3,4,4,5,5,6,6,6-octafluoro-hex-2-enyl)-amino]-pentyl}-estra-1,3,5(10)-triene-3,17β-diol] | 29 |  |  |  |  |
| CN(CCCCC[C@@H]1Cc2cc(O)ccc2[C@@H]2[C@@H]1[C@@H]1CC[C@H](O)[C@@]1(C)C[C@@H]2F)CCCOCc1ccccc1 [Example 22, 7α-{5-[(3-Benzyloxy-propyl)-methyl-amino]-pentyl}-11β-fluor-estra-1,3,5(10)-triene-3,17β-diol] | 53 |  |  |  |  |
| CN(CCCCCCCC(F)(F)C(F)(F)F)CCCCC[C@@H]1Cc2cc(O)ccc2[C@@H]2[C@@H]1[C@@H]1CC[C@H](O)[C@@]1(C)C[C@@H]2F |  |  |  |  | 110 |
